The subject of test [1] is COS-7 cells (nuclear import). As to the kind of experiment: Microinjection of FITC-BSA conjugates into COS-7 cells, nuclear import. The test is classed as cell-based. The following applies: 37°C, 2 h after injection, fluorescence microscopy (Fig. 3A-E). An excerpt: Nuclear import transport substrates
Proteins and peptides used in this work as transport substrates were covalently attached to either fluorescein isothiocyanate-labeled bovine serum albumin (FITC-BSA) or biotinylated BSA (Bb) molecules (Sigma). Sulfosuccinimidyl-4-(N-maleimidomethyl) cyclohexane-1-carboxylate (sulfo-SMCC) was used as the cross-linker to give FITC-BSA-protein/peptide and Bb-protein/peptide conjugates, as described previously.
Microinjection of fluorescently labeled transport substrates
FITC-BSA-IN, FITC-BSA-180-IN, FITC-BSA-152-IN, FITC-BSA-NLS-IN, as well as unlabeled FITC-BSA, were microinjected into the cytoplasm of cultured COS-7 cells as described previously. The CompInject AIS2 automated microinjection system (Cell Biology Trading, Hamburg, Germany) was used following the method developed by Graessmann and Graessman. Cultured mammalian cells were incubated at 37°C for 2 h after injection and observed by fluorescence microscopy.

The next test deals with IN-importin α complex. Nature of the test: Co-immunoprecipitation of IN and importin α from HIV-1-infected cells. The following applies: HIV-1-infected H9 lymphocytes, 150 μM peptide 2 h prior to infection, harvested 10 h PI (Fig. 7A).
The test system of test [2] is HIV-1 replication in Sup-T1 cells. As to the kind of experiment: Time-of-addition assay, viral p24 production in Sup-T1 cells. The test is classed as cell-based. The following applies: non-active peptides, NLS-IN and Pen at 62.5 μM in time-of-addition; sentence cites Fig. 9 as a whole. The procedure:
Sup-T1 cells were infected with wild-type HIV-1 at a MOI of 2, and the test compounds were added at different time points after infection (0, 2, 4,..., 24 h). Viral p24 production was determined at 48 h PI [67]. Dextran sulfate was tested at 20 μM, AZT at 2 μM, NLS-IN-Pen, NLS-IN and Pen at 62.5 μM, LEDGF 402-411 at 12.5 μM [41].

Another test relates to HIV-1 in TZM-bl cells. As to the kind of experiment: MAGI assay, HIV-1 infection of TZM-bl cells (β-galactosidase reporter). The test is classed as cell-based. The settings on record: TZM-bl cells (Fig. 9A, B); dividing/non-dividing not distinguished. The procedure: HIV-1 titration by multinuclear activation of a galactosidase indicator (MAGI) assay
Quantitative titration of HIV-1 was carried out using the MAGI assay, as described previously. Briefly, TZM-b1 cells were grown in 96-well plates at 10^4 cells/well and incubated for 12 h at 37°C. Peptides were then added and after an additional 2 h of incubation, the cells were infected with 50 μl of serially diluted HIV-1. To obtain cell-cycle arrested cells, 5 μg/ml of aphidicolin was added 2 h before the experiment. Cultured cells were fixed 2 days PI and β-galactosidase was estimated. Blue cells were counted under a light microscope at 200× magnification.

The test system of test [3] is HIV-1 IN (nuclear import). Nature of the test: Immunostaining of intracellular localization of IN in stably transfected, cell-cycle arrested HeLaP4/IN-expressing cells. The test is classed as cell-based. The following applies: aphidicolin 5 μg/ml arrested HeLaP4/IN cells; 150 μM peptide, 6 h; confocal microscopy (Fig. 1). How it is done: Localization studies of transfected IN in cultured cells by immunostaining
HeLaP4/IN-expressing cells were grown on chamber slides (Nunc). […] Cells were fixed and immunostained essentially as described previously with several modifications. Briefly, after fixation cells were blocked with 5% (w/v) BSA (IgG free) (Jackson) in PBS for 60 min. […] Cells were washed five times with PBS + 0.05% (v/v) Tween 20. Then the cells were incubated with a second antibody, Cy3-conjugated anti-rabbit antibody (Jackson) (1:200) at room temperature for 60 min followed by five washes with PBS + 0.05% Tween 20. For detection of DNA, cells were stained with DAPI according to the manufacturer's protocol. The slides were prepared with mounting media (Bio-Rad) and immunofluorescent cells were detected with a confocal microscope.

The subject of test [4] is HIV-1 IN (nuclear import). Nature of the test: Immunostaining of IN localization in HIV-1-infected HeLaP4 cells. The test is classed as cell-based. The settings on record: aphidicolin-arrested HeLaP4, 150 μM peptide 2 h, then HIV-1 MOI 25, fixed 10 h PI (Fig. 7B). The procedure:
Localization studies of IN in HIV-1-infected cultured cells by immunostaining
HeLaP4 cells were grown on chamber slides. […] After incubation with the peptides, cells were infected with wild-type HIV-1 at a multiplicity of infection (MOI) of 25. Cells were fixed and stained as described above with the following modifications: fixation was performed at 10 h PI, the first antibody was used at a dilution of 1:50, the second antibody at a dilution of 1:100.

Consider “FITC-BSA: fluorescein isothiocyanate-labeled bovine serum albumin”, for which the “nuclear import after microinjection” value in test [1] was “no nuclear import was observed”.

With RQIKIWFQNRRMKWKK [Pen], the “IN-importin α interaction (co-IP)” value in the test with IN-importin α complex is “neither the SV40-mut-NLS-Pen (or a scrambled NLS-IN [23], not shown) nor the Pen peptide itself promoted dissociation of the IN-importin α complex”. Moreover, the “inhibition of HIV-1 (Fig. 9)” value in test [2] is reported as “Inhibition was not observed”. For the same substance, in the test on HIV-1 in TZM-bl cells, the HIV-1 infection inhibition result was “no inhibition of HIV-1 infection”. Moreover, the “nuclear import / intracellular localization of IN” value in test [3] is on record as “did not have any effect on nuclear import of IN”. Besides, the “intranuclear IN in infected cells” value in test [4] is listed as “some intranuclear fluorescently labeled IN could be observed”.

Values taken from article PMC3224947, “Inhibition of HIV-1 integrase nuclear import and replication by a peptide bearing integrase putative nuclear localization signal” (Retrovirology, 2009).
